Source: a melting point compilation (Tetko et al.; mined from patent text by program, amines drawn as free bases though some values may be those of a salt)

Structure (SMILES)	melting point [°C]
c1ccc2c(c1)CC1(CCN(CCc3c[nH]c4ccccc34)CC1)O2	167 to 169
COC(=O)c1ccc(-c2ccc(-c3ccccc3)c(-c3ccc4c(c3)SCCC4(C)C)c2)cc1	172
CC(N)(C(N)=O)C(F)F (stereo unspecified)	77 to 80
COc1ccc(CN2CCNCC2)cc1	99 to 101
O=CNc1ccccc1CNC1CCC(=O)NC1=O (stereo unspecified)	169 to 174
C=C(c1ccsc1C=O)c1cc(C(C)(C)C)cc2c1CCC2(C)C	99 to 100
OCC1(O)CSC(=S)N1c1ccccn1 (stereo unspecified)	134 to 135
O=C(O)CCCCc1ccccc1CNC(=O)C1Cc2ccccc2N1S(=O)(=O)c1ccc(-c2cccc(C(F)(F)F)c2)cc1 (stereo unspecified)	98 to 99
COc1ccc(CCCC(CC(=O)O)CC(=O)O)cc1	71 to 73
COc1ccc(C2NC(C(=O)O)CS2)cc1 (stereo unspecified)	150 to 151
COc1cc(CCc2c(CO)ccc(OC)c2OC)cc(OC)c1	126 to 128
O=C(/C=C/c1ccccc1I)NCCO	130 to 132
CC(=O)c1ccc(N(C)C)c(S(N)(=O)=O)c1	184 to 185
CCOCCOCCOc1cc(N2C(=O)C3=C(CCCC3)C2=O)c(F)cc1Cl	61
Clc1cc(Nn2cccc2)ncn1	196 to 198
O=[N+]([O-])c1nc(NCCO)ccc1NCCO	158
COc1snc(OCC#CI)c1C#N	159 to 160
COc1ccc(Nc2nc(NC3CCCCCC3)nc(N3CCCC3)n2)cc1F	79
O=C(O)Cc1ccc(Br)cc1[N+](=O)[O-]	166 to 168
CCOC(=O)COc1cc2c(c(Cl)c1Cl)C(=O)C(C)(C(C)C)C2 (stereo unspecified)	113
CCCc1nc(NCCO)nc(N2CCOCC2)n1	95 to 99
Cc1nccn1NCc1cc(C(C)(C)C)c(O)c(C(C)(C)C)c1	181 to 182
COc1ccc(C2=NN(C3CCSCC3)C(=O)[C@H]3CC=CC[C@@H]23)c2c1OC(C)(C)C2 (relative stereo)	163 to 164

Structure (SMILES)	melting point [°C]
CC(C)(C)Nc1c(Nc2ccc3ncccc3c2)c(=O)c1=O	234 to 236
Cc1nc(C(C)(C)C)c(O)c(C(C)(C)C)n1	62 to 65
O=c1nc(-c2ccc3c(c2)OCO3)c2cc3c(cc2n1CC1CC1)OCO3	255 to 260
COc1ccc2c(c1)C13CCN(C)C(C2)C1C(C)C(C)C(=O)C3 (stereo unspecified)	101 to 102
CCCCc1nc2c(N)nc3ccc(OCC(=O)N4CCCCC4)cc3c2n1C	222 to 223
CCOC(=O)c1ccc2c(c1)CCCC2Cn1ccnc1S (stereo unspecified)	155 to 156
CCCCCc1cc(C(=O)OC)ccc1O	82.5 to 83.5
COC(=O)C1(c2cc(C#N)ccc2O)CCCC1	113 to 118
CCCCc1sc(C(=O)O)c2c1-c1c(cnn1C)CC2	286 to 287
CCOC(=O)C(O[Si](C)(C)C)C(O[Si](C)(C)C)c1cc(OC)c(OC)cc1[N+](=O)[O-] (stereo unspecified)	151 to 153
CNC(=S)C1(c2cnc3ccccc3c2)CCCS1 (stereo unspecified)	159
C=C(CO)C[C@](C)(O)[C@H]1CC[C@H]2[C@@H](O[Si](C)(C)C(C)(C)C)CCC[C@@]21C	95
CC(=O)Nc1c(F)cc(F)cc1SCC#N	148 to 149
Cc1cc(C)c2cccc(C(=O)Nc3nnn[nH]3)c2n1	300 to 305
CC(=O)NCC1CCN(CC2COc3ccccc3O2)CC1 (stereo unspecified)	138
CC(C)N(C)S(=O)(=O)NC(=O)c1ccc(F)c([N+](=O)[O-])c1	164 to 165
O=C1C(=O)N(CCCCl)c2ccccc21	72 to 76.5
NCCc1c2n(c3ccccc13)C(=O)CCC2	110 to 111
C=C(CCC(C)C1CCC2(O)C3=C(C(=O)CC12C)C1(C)CCC(=O)C(C)C1CC3O)C(C)C(=O)O (stereo unspecified)	175 to 177
COc1cccc(CNC(=O)c2cc3c(=O)n(CC#N)c(=O)n(C)c3s2)c1	159 to 163
COC(=O)C1Cc2c([nH]c3ccccc23)C(C)N1 (stereo unspecified)	152 to 154
O=c1[nH]c(C(F)(F)F)c(Br)c(=O)[nH]1	236 to 240
CC1(C#N)CCc2cc(O)c(C(C)(C)C)cc2O1 (stereo unspecified)	153 to 155

Second part, the compound after the results:

melting point [°C]	Structure (SMILES)
185 to 187	Cc1nc(N2CCN(Cc3ccc(F)cc3)C2=O)sc1C(=O)NCc1cnccn1
232 to 235	O=C(Nc1c(F)cccc1F)c1c(O)ccn2c1nc1ccccc12
286 to 291	COc1ccc(-c2[nH]nc(C(=O)Oc3ccccc3)c2N)cc1
89 to 90	COC(=O)c1cc(OCc2nc(-c3ccccc3)sc2C)no1
118 to 121	COc1ccccc1OC(CCN)c1ccccc1 (stereo unspecified)
103 to 106	CCOC(=O)Cc1ccc(C(=O)c2ccc([N+](=O)[O-])cc2)n1C
90 to 96	Cc1ccc(Cc2cnc(NCCCN(Cc3ccccc3)c3ccccn3)[nH]c2=O)cn1
184	CN(C)CCNS(=O)(=O)c1cccc(NC(=O)c2cnn3c(C(F)F)cc(-c4ccc(C(F)(F)F)cc4)nc23)c1
100 to 101	COC(=O)CCc1ccc(OCc2cccc(/C=C/c3ccccc3)c2)cc1
157 to 159	CC(C)N(CCN1C(=O)/C(=N/NC(=O)Nc2ccccc2)c2ccccc21)C(C)C
234 to 235	O=C(Nc1cccc2c(=O)cc(-c3nnn[nH]3)oc12)c1ccc2c(c1)CC(CCCc1ccccc1)O2 (stereo unspecified)
73 to 79	COc1cc(C2CCN(CC(O)CF)CC2)ccc1Nc1ncc2ccc(-c3ccccc3OC)n2n1 (stereo unspecified)
206 to 208	CC1(C)OC(=S)Nc2ccc(-c3cc(Cl)cc(Cl)c3)cc21
159 to 160	CS(=O)c1ccc(Oc2ccc([N+](=O)[O-])cc2C#N)cc1 (stereo unspecified)
164 to 165	CN1CC(CCN(C)c2ccccc2)Oc2ncccc2C1=S (stereo unspecified)
> 250	Cn1ncc(C(=O)N2CCS(=O)(=O)CC2)c1C(=O)Nc1ccn2nc(-c3ccccc3)nc2c1
196 to 198	Cn1c(CC(=O)O)ccc1C(=O)c1ccc(C#N)cc1
62 to 64	O=C1c2ccc(CCCCc3ccccc3)cc2CCN1OC1CCCCO1 (stereo unspecified)
159 to 162	CC(Cn1ccnc1)Cn1cnc2ccc(Br)cc2c1=O (stereo unspecified)
219 to 220	O=c1c2cccnc2n(-c2cccc([N+](=O)[O-])c2)c(=O)n1Cc1ccccc1
155 to 156	COc1c(Cl)ccc(-c2nc(C(=O)OCc3ccc(OC(F)(F)F)cc3)c(Cl)c(N)c2F)c1F
192 to 197	COCc1c(C=O)ncc2c1c1c(OCc3ccccc3)cccc1n2CC(=O)N(C)CCc1ccccc1
154	N#CC=Cc1ccc(C(=O)Cl)cc1
189 to 190	Cc1cc(C)c2nc(C3CC3)n(Cc3ccc(C(CC(=O)O)c4ccccc4)cc3)c2n1 (stereo unspecified)
91	CC(C(C=Cc1ccc(Cl)cc1)OCc1ccc(Cl)cc1)n1cncn1 (stereo unspecified)
104 to 105	CCOCc1cc2ccccc2oc1=Nc1ccc(CC)cc1
120 to 121	Cc1nc(-c2cc3c(Oc4ccc(Cl)cc4)cncc3s2)no1
87 to 88	COC(=O)C(C)(Oc1ccc(-c2ccc(Cl)cc2)cc1)C(F)(F)F (stereo unspecified)

melting point [°C]	Structure (SMILES)
144 to 148	Cc1c(CCC(=O)O)cccc1C(=O)c1ccc(Cl)cc1
205 to 210	COc1cc([N+](=O)[O-])ccc1S(=O)(=O)N1C(=O)C(NC(C)=O)(c2ccccc2Cl)c2cc(Cl)ccc21 (stereo unspecified)
53 to 56	CCOC(=O)c1c(Cl)nc(CC)n1Cc1ccc2oc(-c3ccccc3N)c(Br)c2c1
186 to 187	COc1cc(Nc2nccc(-c3ccc(N4CC(O)C4)nc3)n2)cc(OC)c1OC
125 to 127	CN(C1CCN(Cc2cnc3ccccc3c2)CC1)S(=O)(=O)c1ccc(Nc2nccc(Nc3ccc(F)cc3)n2)cc1
130 to 139	CSc1ccc(-c2cnn(CC(F)(F)F)c(=O)c2Cl)cc1
120 to 122	COCc1cccc(-c2ccc3nc(-c4ccc(Cl)cc4)c(Cl)n3c2)c1
159 to 161	Cc1nc(-c2ccccc2)cc(-c2cccc([N+](=O)[O-])c2)c1NC(=O)NCCN(C)C
75 to 76	CC1(C)CCC(C)(C)c2cc(COc3ccccc3-c3ccccc3C(=O)O)ccc21
176 to 177	OC(c1ccccc1)(c1ncc[nH]1)c1ccc(Cl)cc1Cl (stereo unspecified)
113 to 115	COC(=O)c1ccc(S(=O)C(Cn2ccnc2)c2ccccc2OC)cc1 (stereo unspecified)
141 to 145	O=C(Cl)c1ccccc1Nc1cccc([N+](=O)[O-])c1
206 to 208	O=C(O)COC1c2ccccc2COc2ccc(/C=C/c3ccc4cc(F)c(F)cc4n3)cc21 (stereo unspecified)
153 to 155	COc1ccc2c(Cl)cc(-c3ccc(Cl)cc3)nc2c1
120	CN1CCC(OC2c3ccccc3CCn3c2nc(-c2ccccc2)c3CO)CC1 (stereo unspecified)
192 to 193	O=Cc1cn(-c2ccc(Cl)cc2)nc1-c1ccc([N+](=O)[O-])o1
133 to 134	COc1ccc2nc(-c3cccc(C)c3)cc(OCc3ccccc3)c2c1
85 to 87	COC(=O)c1cc(-c2cccc(Cl)c2)sc1N
115 to 117	CCN(CC)CCOc1ccc(-n2c(-c3ccccc3)cc(=O)c3ccccc32)cc1
186 to 188	C#CCc1c(C)nc2c(OCc3c(C)cccc3NC(=O)C(C)O)cccn12 (stereo unspecified)
124	Cc1ccc(OCc2ccccc2[N+](=O)[O-])c(C=O)c1
175 to 177	CC1(C)CON(Cc2ccc(Nc3cc4ccccc4c(=O)o3)cc2)C1=O
165 to 167	CCN(CC)CCOc1nc2ccccc2n(-c2ccc(Cl)cc2)c1=O
84 to 87	CCC(CO)Nc1ccc(-c2cccc(C(F)(F)F)c2)nn1 (stereo unspecified)
> 275	CNc1nc(-c2ccccc2)c(-c2nc3ccccc3c(=O)n2-c2ccc(Cl)cc2)s1
148 to 151	COc1ccc(S(=O)(=O)C(CCCCOc2ccccc2)(Cc2cccnc2)C(=O)O)cc1 (stereo unspecified)
51	N#Cc1cc(F)ccc1Oc1cccc(C(F)(F)F)c1
